Source: US11840686B2, “Modulation of prekallikrein (PKK) expression” (Ionis Pharmaceuticals, Inc., priority 2013, dated 2023)
Strand notation (5' to 3'): a small letter for the sugar, then the base; units joined by * are phosphorothioate-linked, units joined directly phosphodiester-linked; [ ] holds rarer units or linkages, { } end groups; capitals alone tell only the bases. e = 2'-O-(2-methoxyethyl) (MOE); [5mC] = 5-methylcytosine; d = 2'-deoxy (DNA)

Test system: human PKK mRNA
Test: Antisense inhibition of human PKK mRNA in HepaRG cells, 5,000 nM (Example 2)
Type: cell-based
In short: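 Chimeric MOE gapmers with full phosphorothioate backbones were tested once at 5,000 nM in electroporated HepaRG cells. After about 24 hours, quantitative PCR measured PKK mRNA relative to untreated control cells.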

[1] = Table 9 experiment, HepaRG cells, 20,000 cells per well, electroporation with 5,000 nM antisense oligonucleotide, approx. 24 hours, PKK mRNA by RT-PCR (RTS3454), relative to untreated control cells
[2] = Table 10 experiment, HepaRG cells, 20,000 cells per well, electroporation with 5,000 nM antisense oligonucleotide, approx. 24 hours, PKK mRNA by RT-PCR (RTS3454), relative to untreated control cells
[3] = HepaRG cells, electroporation, 5,000 nM antisense oligonucleotide, approx. 24 hours, primer probe set RTS3454, relative to untreated control cells, Table 12
[4] = HepaRG cells, electroporation with 5,000 nM antisense oligonucleotide, approximately 24 hours, PKK mRNA by RT-PCR (RTS3454), relative to untreated control cells, Table 5 experiment
[5] = human PKK mRNA, HepaRG cells, 5-10-5 motif oligonucleotides targeting SEQ ID NO: 1 and 10
[6] = HepaRG cells, 5,000 nM antisense oligonucleotide, 5-10-5 gapmers, Table 16
[7] = Table 7, HepaRG cells, electroporation with 5,000 nM antisense oligonucleotide, approx. 24 hours, PKK mRNA by RT-PCR (RTS3454), relative to untreated control cells
[8] = Table 8, HepaRG cells, electroporation with 5,000 nM antisense oligonucleotide, approx. 24 hours, PKK mRNA by RT-PCR (RTS3454), relative to untreated control cells
[9] = Table 13, human PKK mRNA in HepaRG cells, 5-10-5 gapmers
[10] = HepaRG cells, electroporation with 5,000 nM antisense oligonucleotide, approximately 24 hours, PKK mRNA by RT-PCR (RTS3454), relative to untreated control cells, Table 6 experiment
[11] = HepaRG cells, 5,000 nM antisense oligonucleotide, 5-10-5 gapmers, Table 17

“546879 (eT*eT*eT*e[5mC]*e[5mC]*dT*dA*dT*dA*dA*d[5mC]*dA*dG*dT*dA*eT*e[5mC]*eA*e[5mC]*eT; antisense) [compound 546879]” was tested. Which “% inhibition” value (human PKK mRNA in HepaRG cells, 5-10-5 gapmers, Table 14) did it give?
The value was 42%.

Which results are given for “546306 (antisense eT*eT*eT*eG*eG*dT*dG*dA*dA*dT*dA*dA*dT*dA*dA*eT*e[5mC]*eT*e[5mC]*eT) [compound 546306]”?
% inhibition [1]: 65%; % inhibition [2]: 71%

How did the “% inhibition” value [3] turn out when “547532 (antisense e[5mC]*eT*eG*e[5mC]*e[5mC]*dA*dA*d[5mC]*dA*dG*dT*dT*dT*d[5mC]*dA*eA*e[5mC]*eT*eT*eT) [compound 547532]” was run?
Its value is 65%.

How did the “% inhibition” value [4] turn out when “547291 (antisense eA*eT*eG*eG*eA*dA*dG*d[5mC]*dT*dA*d[5mC]*dA*dT*d[5mC]*d[5mC]*e[5mC]*e[5mC]*eA*e[5mC]*e[5mC]) [compound 547291]” was run?
Its value is 74%.

Which “% inhibition” value [5] does the source give for “547640 (eT*eG*eT*e[5mC]*e[5mC]*dT*dA*dT*dA*dA*d[5mC]*dT*dA*dT*dA*eA*e[5mC]*eA*eG*eT; antisense) [compound 547640]” here?
The value was 13%.

Which “% inhibition” value [6] does the source give for “546931 (eG*e[5mC]*e[5mC]*e[5mC]*e[5mC]*d[5mC]*dG*dG*dA*dG*d[5mC]*dA*d[5mC]*d[5mC]*dT*eT*e[5mC]*eA*e[5mC]*eT; antisense) [compound 546931]” here?
The value was 58%.

“546249 (e[5mC]*eT*eT*e[5mC]*eT*d[5mC]*d[5mC]*dT*d[5mC]*d[5mC]*dA*dA*dA*dG*dT*e[5mC]*eA*eA*e[5mC]*eT; antisense) [compound 546249]” was tested. Which “% inhibition” value [7] did it give?
Its value is 68%.

For “547496 (antisense eA*eT*eG*e[5mC]*eT*dG*dG*dT*dG*dA*d[5mC]*dT*dG*d[5mC]*dA*eT*e[5mC]*eT*eG*eA) [compound 547496]”, which “% inhibition” value (HepaRG cells, electroporation, 5,000 nM antisense oligonucleotide, approx. 24 hours, primer probe set RTS3454, relative to untreated control cells, Table 11) is on record?
The value was 80%.

With “546299 (antisense eA*eT*eG*e[5mC]*e[5mC]*dA*d[5mC]*dT*dA*dT*dA*dG*dA*dT*dG*e[5mC]*eG*e[5mC]*e[5mC]*eA) [compound 546299]” as the substance, how does the “% inhibition” value [8] read?
Its value is 84%.

Which “% inhibition” value [1] does the source give for “547476 (antisense e[5mC]*eA*eT*eT*eT*dG*dT*dT*dA*d[5mC]*d[5mC]*dA*dA*dA*dG*eG*eA*eA*eT*eA) [compound 547476]” here?
Its value is 75%.

And the “% inhibition” value [2]?
Its value is 71%.

Which “% inhibition” value [9] does the source give for “546822 (eA*e[5mC]*eT*eA*eG*dT*dT*dT*d[5mC]*d[5mC]*dT*dA*dT*dA*dA*e[5mC]*eT*eG*e[5mC]*eT; antisense) [compound 546822]” here?
Its value is 32%.

“546267 (e[5mC]*e[5mC]*eT*eT*eA*d[5mC]*dA*dG*dT*d[5mC]*dT*dT*d[5mC]*dT*dG*eG*eG*eA*eG*eT; antisense) [compound 546267]” was tested. Which “% inhibition” value [8] did it give?
The value was 72%.

“547325 (antisense eG*eA*e[5mC]*e[5mC]*eA*d[5mC]*dA*dT*dT*dG*d[5mC]*dT*dT*d[5mC]*dA*eA*eG*eG*eA*eA) [compound 547325]” was tested. Which “% inhibition” value [10] did it give?
The value was 67%.

For “546321 (antisense eG*eA*eA*eG*eG*dT*dA*dG*dG*d[5mC]*dA*dT*dA*dT*dT*eG*eG*eT*eT*eT) [compound 546321]”, which “% inhibition” value [1] is on record?
Its value is 53%.

What about the “% inhibition” value [2] of the same substance?
The value was 56%.

How did the “% inhibition” value [3] turn out when “546690 (e[5mC]*eT*e[5mC]*eT*eG*d[5mC]*dT*dG*dG*dT*dT*dT*dT*dA*dG*eA*e[5mC]*e[5mC]*eA*e[5mC]; antisense) [compound 546690]” was run?
Its value is 44%.

Which “% inhibition” value [1] does the source give for “546349 (antisense eG*eT*eG*eT*eT*dT*dG*d[5mC]*dA*dA*dA*d[5mC]*dT*dA*dA*eG*eG*eG*eA*e[5mC]) [compound 546349]” here?
Its value is 48%.

What about the “% inhibition” value [2] of the same substance?
The value was 35%.

For “547018 (eG*eG*eT*eG*eG*d[5mC]*dG*dG*dG*dA*dT*dT*dG*dG*dT*eG*eG*eT*eG*eG; antisense) [compound 547018]”, which “% inhibition” value [11] is on record?
The value was 58%.

Which “% inhibition” value [11] does the source give for “547069 (eG*e[5mC]*e[5mC]*e[5mC]*eT*d[5mC]*d[5mC]*dG*dA*dG*d[5mC]*dT*dT*dT*dG*eG*e[5mC]*eA*eA*e[5mC]; antisense) [compound 547069]” here?
The value was 35%.

With “547461 (antisense eG*eT*eA*eA*eT*dT*d[5mC]*dA*dA*dA*dG*dG*dA*dG*d[5mC]*e[5mC]*eT*eG*eG*eA) [compound 547461]” as the substance, how does the “% inhibition” value [1] read?
The value was 49%.

What about the “% inhibition” value [2] of the same substance?
The value was 55%.

With “546204 (antisense eA*eA*eT*eA*eG*dG*d[5mC]*dA*dA*dT*dT*dG*dT*dT*d[5mC]*e[5mC]*eG*eG*eT*eA) [compound 546204]” as the substance, how does the “% inhibition” value [10] read?
The value was 91%.

Which “% inhibition” value (human PKK mRNA, HepaRG cells, 5,000 nM antisense oligonucleotide, Table 18) does the source give for “548763 (antisense e[5mC]*eT*e[5mC]*eT*dA*dA*d[5mC]*dA*dG*dT*dA*dT*d[5mC]*eA*e[5mC]*eT*eG) [compound 548763]” here?
The value was 44%.

How did the “% inhibition” value [10] turn out when “547334 (antisense eA*eA*eT*eG*eT*d[5mC]*dT*d[5mC]*dG*dA*dT*dG*dG*d[5mC]*dA*eA*eG*e[5mC]*eA*e[5mC]) [compound 547334]” was run?
Its value is 74%.

Which “% inhibition” value [4] does the source give for “547274 (antisense eG*eA*eG*eG*eT*dG*dA*dG*dT*d[5mC]*dT*d[5mC]*dT*dT*dG*eT*e[5mC]*eA*e[5mC]*eT) [compound 547274]” here?
The value was 70%.

“546892 (eA*e[5mC]*eT*eG*eT*d[5mC]*d[5mC]*dT*dA*dT*dG*dT*d[5mC]*dA*d[5mC]*eT*eG*eT*eA*e[5mC]; antisense) [compound 546892]” was tested. Which “% inhibition” value [5] did it give?
The value was 82%.

“547549 (antisense e[5mC]*e[5mC]*e[5mC]*eA*eT*dG*d[5mC]*dA*dT*dA*d[5mC]*dT*d[5mC]*dG*d[5mC]*e[5mC]*eT*eT*eT*eG) [compound 547549]” was tested. Which “% inhibition” value [3] did it give?
The value was 36%.

How did the “% inhibition” value [4] turn out when “546156 (eG*eA*eA*eT*eG*dT*dG*d[5mC]*dA*d[5mC]*d[5mC]*dT*d[5mC]*dA*dT*e[5mC]*eT*eG*eG*e[5mC]; antisense) [compound 546156]” was run?
Its value is 81%.

With “546964 (eG*e[5mC]*eG*eA*eT*dT*d[5mC]*d[5mC]*dT*dT*dG*d[5mC]*d[5mC]*dT*d[5mC]*eT*eG*e[5mC]*eT*eG; antisense) [compound 546964]” as the substance, how does the “% inhibition” value [6] read?
The value was 53%.

“546756 (eA*eT*eA*eA*eG*d[5mC]*dA*dT*d[5mC]*dT*d[5mC]*dT*d[5mC]*dT*dG*eA*e[5mC]*e[5mC]*eT*eA; antisense) [compound 546756]” was tested. Which “% inhibition” value [9] did it give?
Its value is 47%.

For “547535 (antisense eA*eG*eA*e[5mC]*eA*dG*d[5mC]*d[5mC]*d[5mC]*dA*d[5mC]*d[5mC]*dA*dA*d[5mC]*eA*eA*eT*e[5mC]*eT) [compound 547535]”, which “% inhibition” value [3] is on record?
Its value is 28%.

For “547405 (e[5mC]*eA*eA*eA*eG*dT*d[5mC]*dA*dA*d[5mC]*dT*d[5mC]*d[5mC]*d[5mC]*dG*eG*eG*eT*eA*eA; antisense) [compound 547405]”, which “% inhibition” value [7] is on record?
The value was 47%.

Which “% inhibition” value [11] does the source give for “547756 (antisense eG*eG*eG*eT*e[5mC]*dT*dT*dG*d[5mC]*dT*d[5mC]*d[5mC]*dA*d[5mC]*d[5mC]*e[5mC]*eA*e[5mC]*eA*eT) [compound 547756]” here?
Its value is 49%.

How did the “% inhibition” value [11] turn out when “547752 (eG*eT*eG*eG*eT*dT*dG*dG*dT*dG*dG*d[5mC]*dG*dG*dG*eA*eT*e[5mC]*eG*eG; antisense) [compound 547752]” was run?
Its value is 41%.

For “546508 (eG*e[5mC]*eA*eG*e[5mC]*dA*dA*dG*dT*dG*d[5mC]*dT*d[5mC]*d[5mC]*d[5mC]*e[5mC]*eA*eT*eG*e[5mC]; antisense) [compound 546508]”, which “% inhibition” value [3] is on record?
The value was 43%.

For “547627 (antisense eT*e[5mC]*eT*eA*e[5mC]*d[5mC]*dT*dA*dT*dA*dA*d[5mC]*dT*d[5mC]*dT*eA*eA*e[5mC]*eA*eG) [compound 547627]”, which “% inhibition” value [5] is on record?
Its value is 71%.

Which “% inhibition” value [4] does the source give for “547295 (antisense eA*e[5mC]*e[5mC]*eT*e[5mC]*dA*dT*d[5mC]*dT*dG*dG*d[5mC]*dA*dG*dT*eA*eT*eT*eG*eG) [compound 547295]” here?
The value was 88%.

How did the “% inhibition” value [1] turn out when “547451 (antisense eT*eT*eG*eG*eT*dG*dA*dA*dT*dA*dA*dT*dA*dA*dT*e[5mC]*eT*e[5mC]*eT*eT) [compound 547451]” was run?
The value was 75%.

And the “% inhibition” value [2]?
Its value is 64%.

For “547560 (eG*eA*e[5mC]*eG*eG*dT*d[5mC]*dA*d[5mC]*d[5mC]*d[5mC]*dA*dG*d[5mC]*d[5mC]*e[5mC]*eT*eG*eA*e[5mC]; antisense) [compound 547560]”, which “% inhibition” value [9] is on record?
Its value is 42%.

“546502 (eG*eA*eT*eT*eT*dT*d[5mC]*d[5mC]*dA*dT*dG*d[5mC]*dA*dT*dA*e[5mC]*eT*e[5mC]*eG*e[5mC]; antisense) [compound 546502]” was tested. Which “% inhibition” value [3] did it give?
The value was 37%.
